Measurements: US11919902B2, “Aryl-bipyridine amine derivatives as phosphatidylinositol phosphate kinase inhibitors” (HiberCell, Inc., priority 2017, dated 2024)
Where “and” joins values, the source holds several entries; their conditions need not be identical. Equal entries are not always repeated.

Experiments:
[1] = target: T1, GST tagged PIP4KtypeIIB (Homo sapiens, UniProt P78356); assay: Trans-FI P kinase assay PIP4K2B (PIP4KtypeIIB inhibition assay); format: biochemical; details: Table 4; compounds listed under IC50 range headings; 100 uM GTP, 5 nM PIP4KIIB; read-out: Trans-FI P kinase assays: PIP4K2B IC50
T1 construct: made in house; host or cells: E. coli
T1 sequence (P78356 1-416): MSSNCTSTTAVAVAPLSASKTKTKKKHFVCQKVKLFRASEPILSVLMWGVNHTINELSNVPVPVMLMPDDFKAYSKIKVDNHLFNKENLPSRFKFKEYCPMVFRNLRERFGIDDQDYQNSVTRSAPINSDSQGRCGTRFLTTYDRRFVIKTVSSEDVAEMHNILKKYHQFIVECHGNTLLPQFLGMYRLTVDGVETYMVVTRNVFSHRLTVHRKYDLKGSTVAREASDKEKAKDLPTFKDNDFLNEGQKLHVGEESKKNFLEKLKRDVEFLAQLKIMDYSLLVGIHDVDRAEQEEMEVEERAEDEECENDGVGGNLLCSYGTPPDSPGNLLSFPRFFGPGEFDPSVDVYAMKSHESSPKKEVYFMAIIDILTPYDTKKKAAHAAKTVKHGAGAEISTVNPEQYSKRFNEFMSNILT
How it was run: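 Purified GST-PIP4KIIB (5 nM final), 1 h preincubation with compound at 27 C, then 2 h reaction with 100 uM GTP and 80 uM PI5P plus DOPE carrier lipid in pH 7.3 HEPES/MgCl2/Triton buffer with 5% DMSO. GDP read by Transcreener FI fluorescence against a calibration curve; IC50 from % no-inhibitor activity vs log concentration.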

[2] = target: T2, GST tagged PIP4KtypeIIA (Homo sapiens, UniProt P48426); assay: ADP-glo kinase assay PIP4K 2A (PIP4KtypeIIA inhibition assay); format: biochemical; details: Table 3; compounds listed under IC50 range headings; 10 uM ATP, 0.5 nM PIP4KIIA
T2 construct: made in house; host or cells: E. coli
T2 sequence (P48426 1-406): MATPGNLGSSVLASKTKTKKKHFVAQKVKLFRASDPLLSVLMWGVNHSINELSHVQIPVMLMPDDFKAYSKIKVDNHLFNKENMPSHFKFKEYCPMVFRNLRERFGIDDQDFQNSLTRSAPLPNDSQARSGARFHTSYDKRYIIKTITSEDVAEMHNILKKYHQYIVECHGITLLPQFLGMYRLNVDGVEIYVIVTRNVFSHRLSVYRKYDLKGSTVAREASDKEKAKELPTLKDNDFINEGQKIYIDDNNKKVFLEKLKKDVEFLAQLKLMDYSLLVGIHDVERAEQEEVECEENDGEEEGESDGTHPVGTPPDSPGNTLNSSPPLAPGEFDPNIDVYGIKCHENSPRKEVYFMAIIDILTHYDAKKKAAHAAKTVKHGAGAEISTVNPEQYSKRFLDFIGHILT
From the text: GST tagged PIP4KtypeIIA and B enzymes were overexpressed in E. Coli and purified to >80% homogeneity. Phosphatidyl inositol-5-phosphate (PI5P, Cat. #850152, Avanti Polar Lipids Inc.) was used as the lipid substrate and phosphatidyl ethanolamine (DOPE 18:1, Cat. #850725, Avanti Polar Lipids Inc.) was used as the carrier lipid for assays. Ultrapure ATP and GTP was purchased from Bellbrooke Labs. ADP Glo reagents were obtained from Promega. Transcreener FI reagent was obtained from Bellbrooke labs.
1. HEPES buffer mix: 200 mM HEPES pH 7.4, 50 mM MgCl2, 0.05% v/v triton×100
2. HNE buffer: 20 mM HEPES, pH 7.4, 100 mM NaCl, 0.5 mM EGTA
3. H:E buffer: 30 mM HEPES, pH 7.4, 1 mM EGTA
Enzyme preparation: GST-tagged PIP4KtypeIIA (5 uL, 1.43 mg/mL) was diluted (1:10) to 50 uL using HNE buffer. From the 1:10 diluted stock, a 6.4 uL aliquot was diluted further to 5 mL using HNE buffer to yield 5× enzyme stock (2.5 nM).
Lipid Preparation: In a 10 mL pyrex glass vial, lug of PI5P and lug of DOPE were suspended in 2.5 mL of HEPES buffer mix and 2.5 mL of H:E buffer. The contents were mixed and sonicated for 3 min to yield a translucent lipid stock.
Compound Preparation: Compounds were stored as 5 mM stocks in neat DMSO as room temperature in glass vials. 5 mM stocks were diluted to 2 mM and then serially diluted (3×) in neat DMSO in 96 well polypropylene plates. From the serially diluted stocks, 3 uL was delivered into 250 uL of 25% DMSO (in water) to generate 5× compound stocks. Typically, the highest compound conc. was 24 uM.
The assay volume was kept at 25 uL. To each well of the reaction plate, 10 uL of lipid stock (1:1 ratio PI5P:DOPE) was delivered. This was followed by the addition of 5 uL of compound in 25% DMSO. Then, to each well, 5 uL of 2.5 nM (5×) typeIIA enzyme was delivered. The contents were mixed well and incubated for 1 h at 27 C. After 1 h, reaction was initiated by adding 5 uL of 50 uM ATP and the contents were mixed well with a multi-channel pipetteman. The final concentration of the reagents are as follows: 50 mM HEPES, pH 7.3, 10 mM MgCl2, 20 mM NaCl, 0.01% v/v triton-X100, 5% DMSO, 10 uM ATP, 80 uM (2 ug) PI5P, 2 ug DOPE, and 0.5 nM PIP4KIIA. Typically, the highest conc. of compounds was 4.8 uM and the lowest conc. was 0.
After 1 hr, the reaction was quenched by adding 25 uL of ADP Glo reagent. The contents were incubated for 1 hr. Afterwards, 50 uL of kinase detection reagent was delivered. The contents were incubated for another hour. The luminescence was read using Molecular Devices Paradigm plate reader. […] The blanks were averaged and subtracted from all other wells. Using a calibration curve, RLU was converted to uM ADP (product). IC50 was calculated by plotting the residual activity (expressed as % No inhibitor control) vs. log [Inh. conc.]

Row | Compound | IC50 [1] | IC50 [2] [nM]
1 | CCc1ccc2c(c1)N(c1ccc(-c3cncc(-c4ccnc5c4cc4n5CCN(C)C4=O)c3)cc1)C(=O)C2 [Example 151, 4-(5-(4-(6-ethyl-2-oxoindolin-1-yl)phenyl)pyridin-3-yl)-7-methyl-8,9-dihydropyrido[3′,2′:4,5]pyrrolo[1,2-a]pyrazin-6 (7H)-one] | > 5000 nM | > 5000
2 | CN1CCn2c(cc3c(-c4cncc(-c5ccc(N6C(=O)Cc7ccccc76)cc5)c4)ccnc32)C1=O [Example 202, 7-methyl-4-(5-(4-(2-oxoindolin-1-yl)phenyl)pyridin-3-yl)-8,9-dihydropyrido[3′,2′:4,5]pyrrolo[1,2-a]pyrazin-6(7H)-one] | > 5000 nM | > 5000
3 | O=C(Nc1ccc(-c2cncc(-c3ccnc4[nH]ncc34)c2)cc1)c1cc(C2CCC2)on1 [Example 205, N-(4-(5-(1H-pyrazolo[3,4-b]pyridin-4-yl)pyridin-3-yl)phenyl)-5-cyclobutylisoxazole-3-carboxamide] | 100 to 1000 nM and > 5000 nM | > 5000
4 | CN(C(=O)c1ccc(-c2cncc(-c3ccnc4[nH]ncc34)c2)cc1)c1cccc(-n2ccnn2)c1 [Example 206, N-(3-(1H-1,2,3-triazol-1-yl)phenyl)-4-(5-(1H-pyrazolo[3,4-b]pyridin-4-yl)pyridin-3-yl)-N-methylbenzamide] | > 5000 nM | > 5000
5 | Cc1cccc2c1CC(=O)N2c1ccc(-c2cncc(-c3ccnc4c3cc3n4CCN(C)C3=O)c2)cc1 [Example 208, 7-methyl-4-(5-(4-(4-methyl-2-oxoindolin-1-yl)phenyl)pyridin-3-yl)-8,9-dihydropyrido[3′,2′:4,5]pyrrolo[1,2-a]pyrazin-6(7H)-one] | > 5000 nM | > 5000
6 | CCc1cccc2c1CC(=O)N2c1ccc(-c2cncc(-c3ccnc4c3cc3n4CCN(C)C3=O)c2)cc1 [Example 209, 4-(5-(4-(4-ethyl-2-oxoindolin-1-yl)phenyl)pyridin-3-yl)-7-methyl-8,9-dihydropyrido[3′,2′:4,5]pyrrolo[1,2-a]pyrazin-6(7H)-one] | 1000 to 2500 nM | > 5000
7 | CN(C)C(=O)c1ccc(-c2cc(-c3cc(Nc4cc(N)ccn4)ncn3)cnc2N)nc1 [Example 222, 2′-amino-5′-(6-((4-aminopyridin-2-yl)amino)pyrimidin-4-yl)-N,N-dimethyl-[2,3′-bipyridine]-5-carboxamide] | 2500 to 5000 nM | > 5000
8 | CN(C)C(=O)c1ccc(-c2cc(-c3ccnc4[nH]c(C(=O)N[C@H]5COC[C@H]5N)cc34)cnc2N)nc1 [Example 226, 4-(2′-amino-5-(dimethylcarbamoyl)-[2,3′-bipyridin]-5′-yl)-N-((3R,4S)-4-aminotetrahydrofuran-3-yl)-1H-pyrrolo[2,3-b]pyridine-2-carboxamide] | 10 to 100 nM | 1000 to 2500

The remaining lines, values ahead:

Row | IC50 [1] | IC50 [2] [nM] | Compound
9 | 10 to 100 nM | 100 to 1000 | CN(C)C(=O)c1ccc(-c2cc(-c3ccnc4[nH]c(C(=O)NCCc5ncc[nH]5)cc34)cnc2N)nc1 [Example 150, N-(2-(1H-imidazol-2-yl)ethyl)-4-(2′-amino-5-(dimethylcarbamoyl)-[2,3′-bipyridin]-5′-yl)-1H-pyrrolo[2,3-b]pyridine-2-carboxamide]
10 | 100 to 1000 nM | 100 to 1000 | Cc1cc(N2CCCC2=O)ccc1-c1cncc(-c2cn(C)c3ncc(C(C)O)cc23)c1 (stereo not drawn) [Example 197, 1-(4-(5-(5-(1-hydroxyethyl)-1-methyl-1H-pyrrolo[2,3-b]pyridin-3-yl)pyridin-3-yl)-3-methylphenyl)pyrrolidin-2-one]
11 | 10 to 100 nM | 100 to 1000 | C[C@@H]1CC(=O)N(c2ccc(-c3cncc(-c4ccnc5c4cc4n5CCN(C)C4=O)c3)cc2)C1 [Example 198, (R)-7-methyl-4-(5-(4-(4-methyl-2-oxopyrrolidin-1-yl)phenyl)pyridin-3-yl)-8,9-dihydropyrido[3′,2′:4,5]pyrrolo[1,2-a]pyrazin-6(7H)-one]
12 | 10 to 100 nM | 100 to 1000 | C[C@H]1CC(=O)N(c2ccc(-c3cncc(-c4ccnc5c4cc4n5CCN(C)C4=O)c3)cc2)C1 [Example 199, (S)-7-methyl-4-(5-(4-(4-methyl-2-oxopyrrolidin-1-yl)phenyl)pyridin-3-yl)-8,9-dihydropyrido[3′,2′:4,5]pyrrolo[1,2-a]pyrazin-6(7H)-one]
13 | 10 to 100 nM | 100 to 1000 | CN1CCn2c(cc3c(-c4cncc(-c5ccc(N6CC(C)(C)CC6=O)cc5)c4)ccnc32)C1=O [Example 200, 4-(5-(4-(4,4-dimethyl-2-oxopyrrolidin-1-yl)phenyl)pyridin-3-yl)-7-methyl-8,9-dihydropyrido[3′,2′:4,5]pyrrolo[1,2-a]pyrazin-6(7H)-one]
14 | 10 to 100 nM | 100 to 1000 | CN1CCn2c(cc3c(-c4cncc(-c5ccc(N6CC7(CC7)CC6=O)cc5)c4)ccnc32)C1=O [Example 201, 7-methyl-4-(5-(4-(6-oxo-5-azaspiro[2.4]heptan-5-yl)phenyl)pyridin-3-yl)-8,9-dihydropyrido[3′,2′:4,5]pyrrolo[1,2-a]pyrazin-6(7H)-one]
15 | 2500 to 5000 nM | 100 to 1000 | O=C(Nc1ccc(-c2cncc(-c3ccnc4[nH]ncc34)c2)cc1)C(=O)N1CC2CCC1C2 (stereo not drawn) [Example 203, N-(4-(5-(1H-pyrazolo[3,4-b]pyridin-4-yl)pyridin-3-yl)phenyl)-2-(2-azabicyclo[2.2.1]heptan-2-yl)-2-oxoacetamide]
16 | > 5000 nM | 100 to 1000 | O=C(Nc1ccc(-c2cncc(-c3ccnc4[nH]ncc34)c2)cc1)C(=O)N1C2CCC1CC2 [Example 204, N-(4-(5-(1H-pyrazolo[3,4-b]pyridin-4-yl)pyridin-3-yl)phenyl)-2-(7-azabicyclo[2.2.1]heptan-7-yl)-2-oxoacetamide]
17 | 10 to 100 nM | 10 to 100 | O=C1CCCN1c1ccc(-c2cncc(-c3ccnc4c3cc3n4CCN(c4ccccn4)C3=O)c2)cc1 [Example 207, 4-(5-(4-(2-oxopyrrolidin-1-yl)phenyl)pyridin-3-yl)-7-(pyridin-2-yl)-8,9-dihydropyrido[3′,2′:4,5]pyrrolo[1,2-a]pyrazin-6(7H)-one]
18 | 10 to 100 nM | 100 to 1000 | COCCNC(=O)c1cc2c(-c3cncc(-c4ccc(N5CCCC5=O)cc4)c3)ccnc2[nH]1 [Example 228, N-(2-methoxyethyl)-4-(5-(4-(2-oxopyrrolidin-1-yl)phenyl)pyridin-3-yl)-1H-pyrrolo[2,3-b]pyridine-2-carboxamide]
